In patent US9023985B2, “Glucagon composition” (Arecor Ltd., priority 2010, dated 2015):

What was measured:
[1] = Visual assessment of glucagon formulations with different tonicity modifiers, 50° C. incubation; conditions: glucagon 1 mg/ml, 5 mM acetate, 0.075% benzethonium chloride, pH 5.5
Method: In some cases, the composition contained a specified concentration of an antioxidant. The effect of the nature and the concentration of the tonicity modifier on the physical stability (i.e., gel formation and/or aggregation) was determined by visual assessment following storage.
In the first experiment, the effects of mannitol and 1,2-propanediol as tonicity modifiers modifiers were compared at 50° C.
In another experiment, the effects of mannitol and glycerol as tonicity modifiers were compared at 50° C.
In another experiment, the effects of mannitol and trehalose as tonicity modifiers were compared at 50° C.

[2] = Stability of glucagon in surfactant solutions at room temperature (RP-HPLC, gel formation); format: physicochemical; conditions: for Changes in the native form of glucagon (RP-HPLC) / Size of the native glucagon peak (RP-HPLC): glucagon dissolved with the surfactant, incubation at room temperature for days
Excerpt: […]. In contrast, the size of the native peak diminished in the case of CHAPS to <10%) and in the case of TWEEN® 20 (to about 60%).
Formulating at pH>8 minimized the gel formation.

[3] = Visual assessment of glucagon formulations with and without phenol, 50° C. incubation; format: physicochemical; conditions: glucagon 1 mg/ml
Method: The pH of both formulations was adjusted to 5.5. […] The appearance of all formulations was noted shortly after preparation and then following storage at 50° C. for specified periods of time.

[4] = 0 days, 1.3 mM butylated hydroxytoluene
[5] = 6 weeks, 1.3 mM butylated hydroxytoluene
[6] = 6 days, 1.3 mM butylated hydroxytoluene
[7] = 50° C. for up to 6 weeks, 5 mM methionine

## CC(O)CO (stereo not drawn) [1,2-propanediol]
[1]; 50° C.
  Onset of aggregation and gel formation compared with mannitol: much earlier onset of aggregation and gel formation

## CC(C)(C)CC(C)(C)c1ccc(OCCOCC[N+](C)(C)Cc2ccccc2)cc1 [Benzethonium chloride]
[2]
  Changes in the native form of glucagon (RP-HPLC): no significant changes

## C[C@H](CCC(=O)NCCC[N+](C)(C)CCCS(=O)(=O)[O-])[C@H]1CC[C@H]2[C@@H]3[C@H](O)C[C@@H]4C[C@H](O)CC[C@]4(C)[C@H]3C[C@H](O)[C@]12C [CHAPS]
[2]
  Size of the native glucagon peak (RP-HPLC): < 10%

## CCCCCCCCCCCCCCCC[N+](C)(C)C.[Br-] [Cetrimide, cetyl trimethylammonium bromide]
[2]
  Changes in the native form of glucagon (RP-HPLC): no significant changes

## OCC(O)CO [Glycerol (250 mM), Glycerol]
[1]; [4]
  Visual assessment (50° C. incubation), extent of visible precipitation: 1
[1]; [5]
  Visual assessment (50° C. incubation), extent of visible precipitation: 2
[1]; 50° C. for 6 weeks, 1.3 mM butylated hydroxytoluene
  Visual appearance after incubation: signs of precipitation
[1]; [6]
  Visual assessment (50° C. incubation), extent of visible precipitation: 1

## OC[C@@H](O)[C@@H](O)[C@H](O)[C@H](O)CO [Mannitol (250 mM), Mannitol]
[1]; [4]
  Visual assessment (50° C. incubation), extent of visible precipitation: 1
[1]; [5]
  Visual assessment (50° C. incubation), extent of visible precipitation: 1
[1]; [7]
  Visual appearance after incubation: remained as a clear liquid
[1]; [6]
  Visual assessment (50° C. incubation), extent of visible precipitation: 1

## Oc1ccccc1 [phenol]
[3]
  Gel formation and/or aggregation on incubation: delay aggregation and gel formation considerably farther

## OC[C@H]1O[C@H](O[C@H]2O[C@H](CO)[C@@H](O)[C@H](O)[C@H]2O)[C@H](O)[C@@H](O)[C@@H]1O [trehalose (250 and 500 mM), trehalose]
[1]; [7]
  Visual appearance after incubation: remained as a clear liquid

## Benzalkonium chloride
[2]
  Changes in the native form of glucagon (RP-HPLC): no significant changes

## Sodium deoxycholate
[2]
  Changes in the native form of glucagon (RP-HPLC): no significant changes
[2]; prepared at pH 7.5, incubation at room temperature
  Gel formation of dissolved glucagon: tendency to form gels

## TWEEN ® 20
[2]
  Size of the native glucagon peak (RP-HPLC): about 60%
